Measurements taken from KR20240040049A, “신규 화합물 및 이를 포함하는 염증성 질환과 암에 대한 진단 및 치료에 사용되는 mri 조영제” (주식회사 테라노큐어, priority 2022, dated 2024).
In brackets after ≈: the same amount, converted by molar mass. Entries after “also recorded” stand apart in the source; their conditions may differ.

Key:
water solubility at 25℃ = type: physicochemical; conditions: for solubility: water
[1] = r1 relaxivity of gadolinium complexes; type: physicochemical; conditions: in words; comparison among compounds
NLRP3 = assay: acute hepatitis animal model (LPS and D-galactosamine): NLRP3; type: in vivo; conditions: Gd-galangin i.v. 0.1 mmol/kg, galangin oral
PARP = assay: acute hepatitis animal model (LPS and D-galactosamine): PARP; type: in vivo; conditions: Gd-galangin i.v. 0.1 mmol/kg, galangin oral
[2] = system: LPS-induced inflamed tissue (LPS로 유발된 염증 조직); assay: H&E staining of LPS-induced inflamed tissue; type: in vivo

SMILES | solubility in water (water solubility at 25℃) [µM] | solubility in water (words) (water solubility at 25℃) | solubility (water solubility at 25℃) [µg/mL] | r1 relaxivity [1] | effect on NLRP3 (NLRP3) | effect on PARP (PARP) | intercellular spacing / closeness to normal tissue ([2]; Gd-galangin i.v. versus galangin oral) | histological state compared with LPS alone ([2]; Gd-galangin i.v., galangin oral)
O=c1cc(-c2ccccc2)oc2cc(O)ccc12 [7-hydroxyflavone, 7-Hydroxyflavone] | 356 (≈ 84.8 µg/mL) | 거의 물에 녹지 않는 불용성 물질; also recorded: Insoluble | 85 (≈ 357 µM) | – | – | – | – | –
O=C([O-])CN1CCN(CC(=O)[O-])CCN(C(CO)C(O)CO)CCN(CC(=O)[O-])CC1.[Gd+3] (stereo not drawn) [Gd-BT-DO3A] | – | – | – | 유사한 값 | – | – | – | –
O=C([O-])CN1CCN(CC(=O)[O-])CCN(CC(=O)O)CCN(CC(=O)[O-])CC1.[Gd+3] [Gd-DOTA] | – | – | – | 유사한 값 | – | – | – | –
O=c1cc(-c2ccccc2)oc2cc(O)cc(O)c12 [chrysin] | 330 (≈ 83.9 µg/mL) | 거의 물에 녹지 않는 불용성 물질; also recorded: Insoluble | 84 (≈ 330 µM) | – | – | – | – | –
O=c1c(O)c(-c2ccccc2)oc2cc(O)cc(O)c12 [galangin, 3,5,7-트리히드록시플라본] | 2117 (≈ 572 µg/mL) | 거의 물에 녹지 않는 불용성 물질; also recorded: Insoluble | 572 (≈ 2120 µM) | – | 아무런 효과를 보이지 않았으며 | 아무런 효과를 보이지 않았으며 | 전반적으로 더 벌어져 | 더 나은 상태
